The values below come from patent US20030050306A1, “Novel heteroaryl derivatives, their preparation and use” (H. Lundbeck A/S, priority 1999, published 2003).

In experiment [1] the target is T1, cloned human 5-HT1A receptors (Homo sapiens, UniProt P08908).
T1 construct: expressed in transfected cells; host or cells: HeLa cells (HA7)
T1 sequence (P08908 1-422): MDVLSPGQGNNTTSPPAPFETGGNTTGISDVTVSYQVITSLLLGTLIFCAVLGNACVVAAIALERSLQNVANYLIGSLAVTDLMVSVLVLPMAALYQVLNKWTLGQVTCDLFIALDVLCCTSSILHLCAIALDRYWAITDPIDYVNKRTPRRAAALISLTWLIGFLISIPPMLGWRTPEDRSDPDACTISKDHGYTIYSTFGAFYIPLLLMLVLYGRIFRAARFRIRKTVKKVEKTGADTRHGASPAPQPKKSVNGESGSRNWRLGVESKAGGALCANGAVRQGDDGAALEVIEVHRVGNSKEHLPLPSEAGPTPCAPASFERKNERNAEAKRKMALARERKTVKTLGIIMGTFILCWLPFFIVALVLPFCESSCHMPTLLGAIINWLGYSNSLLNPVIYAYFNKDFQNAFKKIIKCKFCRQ
In words: Inhibition of 3H-5-CT binding to human 5-HT1A receptors. Particulars: cloned human 5-HT1A receptors in HeLa cells (HA7). In outline: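 Cloned human 5-HT1A receptors stably expressed in transfected HeLa cells (HA7); 40 μg cell homogenate incubated 15 min at 37° C in 50 mM Tris pH 7.7 with 3H-5-CT. Non-specific binding defined with 10 μM metergoline; bound radioligand separated by rapid GF/B filtration and counted.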

Experiment [2] concerns the target T2, human cloned dopamine D4.2 receptors (Homo sapiens, UniProt P21917, DEL265-296).
T2 construct: expressed in transfected cells; host or cells: CHO cells
T2 sequence (P21917 with tags, fused parts or gaps DEL265-296): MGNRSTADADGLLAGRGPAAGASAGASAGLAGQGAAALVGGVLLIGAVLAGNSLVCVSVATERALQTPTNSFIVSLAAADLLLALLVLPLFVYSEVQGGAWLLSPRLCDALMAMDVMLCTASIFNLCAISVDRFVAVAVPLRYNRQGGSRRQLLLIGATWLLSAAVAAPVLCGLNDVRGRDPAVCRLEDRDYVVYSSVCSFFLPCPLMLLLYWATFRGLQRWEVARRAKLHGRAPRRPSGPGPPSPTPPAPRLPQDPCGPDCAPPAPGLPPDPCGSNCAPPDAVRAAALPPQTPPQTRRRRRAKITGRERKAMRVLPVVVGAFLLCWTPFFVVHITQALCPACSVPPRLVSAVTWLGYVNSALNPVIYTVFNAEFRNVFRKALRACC
In words: Inhibition of the binding of 3H-YM-09151-2 to human dopamine D4 receptors. The note with it: human cloned dopamine D4.2 receptors in CHO-cells. The method, boiled down: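 Radioligand displacement of [3H]YM-09151-2 (0.06 nM) from membranes of CHO cells expressing cloned human D4.2 receptors, measured in vitro.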

Take `Fc1cc(Br)cc(F)c1OCCCCN1CCN(c2cccc3c2OCCO3)CC1` [Compound 5bz, 1-[4-(4-Bromo-2,6-difluoro-phenoxy)-butyl]-4-(2,3-dihydro-benzo[1,4]dioxin-5-yl)-piperazine]: the IC50 (as a rule, the concentration that gives 50% inhibition) came to 5 nM in experiment [1] and 10 nM in experiment [2].
On to `Cc1ccc(SCCCN2CCN(c3cccc4c3OCCO4)CC2)c(C)c1` [Compound 7aj, 1-(2,3-Dihydro-benzo[1,4]dioxin-5-yl)-4-[3-(2,4-dimethyl-phenylsulfanyl)-propyl]-piperazine], for which the inhibition (commonly the relative decrease from the control value, in per cent) at 0.1 µM in experiment [1] (at 100 nM) is 99%. Besides, the inhibition at 0.05 µM in experiment [2] (at 50 nM) worked out at 84%.
As to `Clc1ccccc1SCCCN1CCN(c2cccc3ccsc23)CC1` [Compound 5ce, 1-Benzo[b]thiophen-7-yl-4-[3-(2-chloro-phenylsulfanyl)-propyl]-piperazine], the concentration for half-maximal inhibition (IC50) in experiment [1] amounted to 4.8 nM; in experiment [2] it was 16 nM.
For `Fc1ccc(SCCCN2CCN(c3cccc4c3OCCO4)CC2)c(Cl)c1` [Compound 5ac, 1-[3-(2-Chloro-4-fluoro-phenylsulfanyl)-propyl]-4-(2,3-dihydro-benzo[1,4]dioxin-5-yl)-piperazine] the same measures were 2.4 nM and 1.4 nM.
As for `Clc1ccc(SCCN2CCN(c3cccc4c3OCCO4)CC2)c(Cl)c1` [Compound 7ap, 1-[2-(2,4-Dichloro-phenylsulfanyl)-ethyl]-4-(2,3-dihydro-henzo[1,4]dioxin-5-yl)-piperazine], the “Inhibition of 3H-5-CT Binding % inhibition at 100 nM” value in experiment [1] (at 100 nM) is listed as 91%. For the same compound, the “Inhibition of 3H-YM-09151-2 binding % inhibition at 50 nM” value in experiment [2] (at 50 nM) is on record as 78%.
In the case of `Cc1ccc(Cl)c(OCCCCN2CCN(c3cccc4c3OCCO4)CC2)c1` [Compound 7ao, 1-[4-(2-Chloro-5-methyl-phenoxy)-butyl]-4-(2,3-dihydro-benzo[1,4]dioxin-5-yl)-piperazine], the inhibition at 0.1 µM in experiment [1] (at 100 nM) came out at 97%. The inhibition at 0.05 µM in experiment [2] (at 50 nM) came out at 89%.
The matching figures for `FC(F)(F)c1ccccc1OCCN1CCN(c2cccc3c2OCCO3)CC1` [Compound 7ae, 1-(2,3-Dihydro-benzo[1,4]dioxin-5-yl)-4-[2-(2-trifluoromethyl-phenoxy)-ethyl]-piperazine]: 82% and 75%.
For the compound `Fc1cc(F)c(OCCCN2CCN(c3cccc4c3OCCO4)CC2)c(F)c1` [Compound 1c, 1-(2,3-Dihydro-benzo[1,4]dioxin-5-yl)-4-[3-(2,4,6-trifluoro-phenoxy)-propyl]-piperazine], the IC50 in experiment [1] stood at 2 nM; in experiment [2], 13 nM.
For `CC1(C)COc2c(N3CCN(CCCOc4c(Cl)cc(F)cc4Cl)CC3)cc(Cl)cc21` [Compound 5bl, 1-(5-Chloro-3,3-dimethyl-2,3-dihydro-benzofuran-7-yl)-4-[3-(2,6-dichloro-4-fluoro-phenoxy)-propyl]-piperazine] the same measures were 88 nM and 26 nM.
On to `Clc1cccc(SCCN2CCN(c3cccc4c3OCCO4)CC2)c1Cl` [Compound 7ah, 1-[2-(2,3-Dichloro-phenylsulfanyl)-ethyl]-4-(2,3-dihydro-benzo[1,4]dioxin-5-yl)-piperazine], for which, in experiment [1], the concentration for half-maximal inhibition (IC50) was determined as 1.6 nM. Also, the inhibition at 0.05 µM in experiment [2] (at 50 nM) stood at 87%.
Turning to `Fc1ccc(SCCN2CCN(c3cccc4c3OCCO4)CC2)cc1` [Compound 3b, 1-(2,3-Dihydro-benzo[1,4]dioxin-5-yl)-4-[2-(4-fluoro-phenylsulfanyl)-ethyl]-piperazine], the results for the 50% inhibitory concentration (IC50) in experiment [1] and in experiment [2] were 97 nM and 4.3 nM, respectively.
As for `Fc1ccc(SCCCCN2CCN(c3cccc4c3OCCO4)CC2)c(Cl)c1` [Compound 7bi, 1-[4-(2-Chloro-4-fluoro-phenylsulfanyl)-butyl]-4-(2,3-dihydrobenzo[1,4]dioxin-5-yl)-piperazine], the inhibition at 0.1 µM in experiment [1] (at 100 nM) is 96%. Also, the inhibition at 0.05 µM in experiment [2] (at 50 nM) came out at 101%.
Turning to `COc1ccc(SCCN2CCN(c3cccc4c3OCCO4)CC2)cc1OC` [Compound 7bg, 1-(2,3-Dihydro-benzo[1,4]dioxin-5-yl)-4-[2-(3,4-dimethoxy-phenylsulfanyl)-ethyl]-piperazine], the inhibition at 0.1 µM in experiment [1] (at 100 nM) turned out to be 81%. Further, in experiment [2] (at 50 nM), the inhibition at 0.05 µM was 64%.
Turning to `Clc1cccc(Cl)c1SCCCCN1CCN(c2cccc3c2OCCO3)CC1` [Compound 5ab, 1-[4-(2,6-Dichloro-phenylsulfanyl)-butyl]-4-(2,3-dihydro-benzo[1,4]dioxin-5-yl)-piperazine], the half-maximal inhibitory concentration (IC50) in experiment [1] came to 1.9 nM; in experiment [2], 2.1 nM.
Take “1-[2-(Bromo-trifluoromethyl-phenylsulfanyl)-ethyl]-4-(2,3-dihydro-benzo[1,4]dioxin-5-yl)-piperazine [Compound 3c]”: the half-maximal inhibitory concentration (IC50) in experiment [1] was determined as 11 nM; in experiment [2], 35 nM.
Regarding `Clc1ccccc1SCCN1CCN(c2cccc3c2OCCO3)CC1` [Compound 7av, 1-[2-(2-Chloro-phenylsulfanyl)-ethyl]-4-(2,3-dihydro-benzo[1,4]dioxin-5-yl)-piperazine], the inhibition at 0.1 µM in experiment [1] (at 100 nM) was 90%. In experiment [2] (at 50 nM), the inhibition at 0.05 µM turned out to be 75%.
Regarding `Fc1ccc(OCCCN2CCN(c3cccc4ccsc34)CC2)c(F)c1` [Compound 5ci, 1-Benzo[b]thiophen-7-yl-4-[3-(2,4-difluoro-phenoxy)-propyl]-piperazine], the IC50 in experiment [1] is 3.5 nM; in experiment [2], 2 nM.
Regarding `Clc1cccc(Cl)c1SCCN1CCN(c2cccc3c2OCCO3)CC1` [Compound 3d, 1-[2-(2,6-Dichloro-phenylsulfanyl)-ethyl]-4-(2,3-dihydro-benzo[1,4]dioxin-5-yl)-piperazine], the IC50 in experiment [1] was determined as 31 nM; in experiment [2] it was 11 nM.
`Clc1cccc(Cl)c1OCCCN1CCN(c2cccc3c2OCCO3)CC1` [Compound 1b, 1-[3-(2,6-Dichloro-phenoxy)-propyl]-4-(2,3-dihydro-benzo[1,4]dioxin-5-yl)-piperazine]: the half-inhibitory concentration (IC50) in experiment [1] is 1.1 nM; in experiment [2], 5.9 nM.
On to `C=CCc1ccccc1OCCCCN1CCN(c2cccc3c2OCCO3)CC1` [Compound 7bp, 1-[4-(2-Allyl-phenoxy)-butyl]-4-(2,3-dihydro-benzo[1,4]dioxin-5-yl)-piperazine], for which the inhibition at 0.1 µM in experiment [1] (at 100 nM) amounted to 92%. For the same compound, in experiment [2] (at 50 nM), the inhibition at 0.05 µM came out at 99%.
As for `Fc1ccc(OCCCN2CCN(c3cccc4c3OCCO4)CC2)c(F)c1` [Compound 5cf, 1-[3-(2,4-Difluoro-phenoxy)-propyl]-4-(2,3-dihydro-benzo[1,4]dioxin-5-yl)-piperazine], the IC50 in experiment [1] worked out at 4.9 nM; in experiment [2], 1.4 nM.
For `Fc1cc(Cl)c(OCCCCN2CCN(c3cccc4c3OCCO4)CC2)c(Cl)c1` [Compound 5bp, 1-[4-(2,6-Dichloro-4-fluoro-phenoxy)-butyl]-4-(2,3-dihydro-benzo[1,4]dioxin-5-yl)-piperazine] the same measures were 4.8 nM and 6.2 nM.
In the case of `CC1(C)Cc2cc(Cl)cc(N3CCN(CCCCOc4ccc(F)cc4Cl)CC3)c2O1` [Compound 5bd, 1-(5-Chloro-2,2-dimethyl-2,3-dihydro-benzofuran-7-yl)-4-[4-(2-chloro-4-fluoro-phenoxy)-butyl]-piperazine], the half-maximal inhibitory concentration (IC50) in experiment [1] is 52 nM; in experiment [2] it was 6.5 nM.
For `Cc1cccc(C)c1OCCN1CCN(c2cccc3c2OCCO3)CC1` [Compound 7ab, 1-(2,3-Dihydro-benzo[1,4]dioxin-5-yl)-4-[2-(2,6-dimethyl-phenoxy)-ethyl]-piperazine], the inhibition at 0.1 µM in experiment [1] (at 100 nM) worked out at 86%. The inhibition at 0.05 µM in experiment [2] (at 50 nM) was found to be 91%.
